Results taken from patent US7064204B2, “Pharmaceutically active compounds having a tricyclic pyrazolotriazolopyrimidine ring structure and methods of use” (King Pharmacueticals Reserch and Development, Inc., priority 2002, dated 2006).
Counter-ions that a name gives are not always drawn.

Tests used:
[1] = target: T1, human A1 adenosine receptors (Homo sapiens, UniProt P30542); assay: Displacement of [3H]DPCPX binding at human A1 adenosine receptors expressed in CHO cells
T1 construct: expressed in transfected cells; host or cells: CHO cells
T1 sequence (P30542 1-326): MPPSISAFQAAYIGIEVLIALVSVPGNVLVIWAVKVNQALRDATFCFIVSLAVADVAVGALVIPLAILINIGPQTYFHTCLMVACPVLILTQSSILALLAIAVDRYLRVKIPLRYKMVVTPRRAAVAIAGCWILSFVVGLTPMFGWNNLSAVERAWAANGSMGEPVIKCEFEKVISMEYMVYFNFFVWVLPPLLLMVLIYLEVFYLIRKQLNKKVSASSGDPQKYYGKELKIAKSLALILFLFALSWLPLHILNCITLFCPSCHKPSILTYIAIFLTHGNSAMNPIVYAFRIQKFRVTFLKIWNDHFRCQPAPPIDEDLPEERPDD

[2] = target: T2, human A2A adenosine receptors (Homo sapiens, UniProt P29274); assay: Displacement of [3H]SCH58261 binding at human A2A adenosine receptors expressed in CHO cells; settings: for Ki: CHO cells; for affinity for A2A adenosine receptor subtype / selectivity for A2A versus the other adenosine receptor subtypes: in words; for affinity for A2A adenosine receptor subtype: discussion of Tables 2 and 3
T2 construct: expressed in transfected cells; host or cells: CHO cells
T2 sequence (P29274 whole entry): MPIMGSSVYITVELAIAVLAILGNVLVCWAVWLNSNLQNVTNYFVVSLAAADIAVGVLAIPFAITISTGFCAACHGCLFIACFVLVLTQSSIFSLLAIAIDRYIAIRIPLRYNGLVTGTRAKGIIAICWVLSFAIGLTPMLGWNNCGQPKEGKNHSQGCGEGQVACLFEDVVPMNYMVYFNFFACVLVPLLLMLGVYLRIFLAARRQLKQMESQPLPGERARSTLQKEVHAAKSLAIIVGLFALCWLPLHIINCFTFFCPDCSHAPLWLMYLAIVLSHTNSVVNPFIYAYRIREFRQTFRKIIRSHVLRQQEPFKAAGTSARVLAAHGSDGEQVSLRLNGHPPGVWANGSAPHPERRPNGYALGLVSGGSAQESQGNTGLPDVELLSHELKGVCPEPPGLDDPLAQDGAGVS

[3] = target: T3, human A2B adenosine receptors (Homo sapiens, UniProt P29275); assay: Displacement of [3H]DPCPX binding at human A2B adenosine receptors expressed in HEK-293 cells
T3 construct: expressed in transfected cells; host or cells: HEK-293 cells
T3 sequence (P29275 1-332): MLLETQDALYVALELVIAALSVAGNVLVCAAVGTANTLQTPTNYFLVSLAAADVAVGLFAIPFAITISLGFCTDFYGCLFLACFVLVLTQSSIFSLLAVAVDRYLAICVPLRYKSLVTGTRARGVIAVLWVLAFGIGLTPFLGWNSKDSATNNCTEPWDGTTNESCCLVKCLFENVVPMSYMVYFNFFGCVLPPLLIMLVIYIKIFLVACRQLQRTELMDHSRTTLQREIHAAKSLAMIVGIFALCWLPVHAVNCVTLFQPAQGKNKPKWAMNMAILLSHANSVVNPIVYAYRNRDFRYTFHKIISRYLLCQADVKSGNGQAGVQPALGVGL

[4] = target: T4, human A3 adenosine receptors (Homo sapiens, UniProt P0DMS8); assay: Displacement of [3H]MRE 3008F20 binding at human A3 adenosine receptors expressed in CHO cells; design: expressed in transfected cells; host or cells: CHO cells; settings: for affinity for / interaction with A3 adenosine receptor subtype: discussion of Tables 2 and 3
T4 sequence (P0DMS8 1-318): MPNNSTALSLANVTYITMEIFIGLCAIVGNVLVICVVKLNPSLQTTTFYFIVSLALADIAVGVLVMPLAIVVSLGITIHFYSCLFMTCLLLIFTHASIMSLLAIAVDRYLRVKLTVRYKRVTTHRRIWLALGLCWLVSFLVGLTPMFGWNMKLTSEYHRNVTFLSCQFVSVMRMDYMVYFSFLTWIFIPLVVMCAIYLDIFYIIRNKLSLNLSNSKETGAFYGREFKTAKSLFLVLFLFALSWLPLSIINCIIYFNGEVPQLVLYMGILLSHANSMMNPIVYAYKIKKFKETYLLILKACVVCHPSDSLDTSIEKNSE

[5] = Table 2, footnote b: [3H]DPCPX, human A1
[6] = Table 2, footnote b: [3H]SCH58261, human A2A
[7] = Table 2, footnote b: [3H]MRE 3008F20, human A3, CHO cells
[8] = Table 3: [3H]DPCPX, human A1, CHO cells
[9] = Table 3: [3H]DPCPX, HEK-293 cells
[10] = Table 3: [3H]MRE 3008F20, human A3, CHO cells
[11] = Table 3: [3H]SCH58261, human A2A

SMILES | affinity for / interaction with A3 adenosine receptor subtype ([4]; in words) | Ki [1, 8] [nM] | affinity for A2A adenosine receptor subtype [2] | Ki [3, 9] [nM] | Ki [4, 10] [nM] | Ki [2, 11] [nM] | also measured
CCOc1ccccc1-c1nc2c3cnn(CCc4ccccc4)c3nc(N)n2n1 [Compound 5c, 2-(2-Ethoxy-phenyl)-7-phenethyl-7H-pyrazolo[4,3-e][1,2,4]triazolo[1,5-c]pyrimidin-5-ylamine] | poor affinity |  |  |  |  |  | Ki [1, 5]: > 1000 nM; Ki [2, 6]: > 1000 nM; Ki ([3]; Table 2, footnote b: [3H]DPCPX): > 1000 nM; Ki [4, 7]: 348 nM; selectivity for A3 versus the other adenosine receptor subtypes ([4]; in words): complete selectivity
CCOC(=O)COc1ccc(-c2nc3c4cnn(CCc5ccccc5)c4nc(N)n3n2)cc1 [Compound 6, [4-(5-Amino-7-phenethyl-7H-pyrazolo[4,3-e][1,2,4]triazolo[1,5-c]pyrimidin-2-yl)-phenoxy]-acetic acid ethyl ester] |  |  |  |  |  |  | Ki [1, 5]: > 1000 nM; Ki [2, 6]: > 1000 nM; Ki ([3]; Table 2, footnote b: [3H]DPCPX): > 1000 nM; Ki [4, 7]: > 1000 nM
Nc1nc2c(cnn2CCc2ccccc2)c2nc(-c3ccc(OCC(=O)O)cc3)nn12 [Compound 7, [4-(5-Amino-7-phenethyl-7H-pyrazolo[4,3-e][1,2,4]triazolo[1,5-c]pyrimidin-2-yl)-phenoxy]-acetic acid] |  |  |  |  |  |  | Ki [1, 5]: > 1000 nM; Ki [2, 6]: > 1000 nM; Ki ([3]; Table 2, footnote b: [3H]DPCPX): > 1000 nM; Ki [4, 7]: > 1000 nM
Nc1nc2c(cnn2CCc2ccccc2)c2nc(-c3ccc(OCC(=O)Nc4ccc(I)cc4)cc3)nn12 [Compound 8, 2-[4-(5-Amino-7-phenethyl-7H-pyrazolo[4,3-e][1,2,4]triazolo[1,5-c]pyrimidin-2-yl)-phenoxy]-N-(4-iodo-phenyl)-acetamide] |  |  |  |  |  |  | Ki [1, 5]: > 1000 nM; Ki [2, 6]: > 1000 nM; Ki ([3]; Table 2, footnote b: [3H]DPCPX): > 1000 nM; Ki [4, 7]: > 1000 nM
CCNc1c2c(nc(N)n3nc(-c4ccco4)nc23)nn1C [Compound 38, N9-Ethyl-2-furan-2-yl-8-methyl-8H-pyrazolo[4,3-e][1,2,4]triazolo[1,5-c]pyrimidiine-5,9-diamine] |  | 50 | good affinity | 81 | 225 |  | 
CN1CCN(c2c3c(nc(N)n4nc(-c5ccco5)nc34)nn2C)CC1 [Compound 40, 2-Furan-2-yl-8-methyl-9-(4-methyl-piperazin-1-yl)-8H-pyrazolo[4,3-e][1,2,4]triazolo[1,5-c]pyrimidin-5-ylamine] |  | 30 | useless | 35 |  | 156 | 
CSc1c2c(nc(N)n3nc(-c4ccco4)nc23)nn1C [Compound 41, 2-Furan-2-yl-8-methyl-9-methylsulfanyl-8H-pyrazolo[4,3-e][1,2,4]triazolo[1,5-c]pyrimidin-5-ylamine] |  | 8.4 | good affinity | 10.3 | 35 | 1.2 | selectivity for A2A versus the other adenosine receptor subtypes [2]: low selectivity
CSc1c2c(nc(N)n3nc(-c4ccco4)nc23)nn1CCCc1ccccc1 [Compound 43, 2-Furan-2-yl-9-methylsulfanyl-8-(3-phenyl-propyl)-8H-pyrazolo[4,3-e][1,2,4]triazolo[1,5-c]pyrimidin-5-ylamine] |  | 175 | decrease of A2A interaction | 31 |  | 22 | 
CCNc1c2c(nc(NC(=O)Nc3ccc(OC)cc3)n3nc(-c4ccco4)nc23)nn1C [Compound 44, 1-(9-Ethylamino-2-furan-2-yl-8-methyl-8H-pyrazolo[4,3-e][1,2,4]triazolo[1,5-c]pyrimidin-5-yl)-3-(4-methoxy-phenyl)-urea] | good increase in A3 affinity | 150 | decrease of A2A affinity | 37 | 17 |  | 
COc1ccc(CC(=O)Nc2nc3nn(C)c(SC)c3c3nc(-c4ccco4)nn23)cc1 [Compound 47, N-(2-Furan-2-yl-8-methyl-9-methylsulfanyl-8H-pyrazolo[4,3-e][1,2,4]triazolo[1,5-c]pyrimidin-5-yl)-2-(4-methoxy-phenyl)-acetamide] | decreased | 80 | maintains A2A affinity | 45 |  | 15 | 
CSc1c2c(nc(NC(=O)Cc3ccc(CC(C)C)cc3)n3nc(-c4ccco4)nc23)nn1C [Compound 48, N-(2-Furan-2-yl-8-methyl-9-methylsulfanyl-8H-pyrazolo[4,3-e][1,2,4]triazolo[1,5-c]pyrimidin-5-yl)-2-(4-isobutyl-phenyl)-acetamide] | decreased | 780 | maintains A2A affinity | 190 |  | 50 | 
CCNc1c2c(nc(N)n3nc(-c4ccco4)nc23)nn1C [Compound 53, N9-Ethyl-2-furan-2-yl-8-methyl-8H-pyrazolo[4,3-e][1,2,4]triazolo[1,5-c]pyrimidine-5,9-diamine hydrochloride salt] |  |  |  |  |  |  | Ki ([1]; Table 3: [3H]DPCPX, human A1, CHO cells, hydrochloride salt): 41 nM; Ki ([3]; Table 3: [3H]DPCPX, HEK-293 cells, hydrochloride salt): 36 nM; Ki ([4]; Table 3: [3H]MRE 3008F20, human A3, CHO cells, hydrochloride salt): 25 nM
CN1CCN(c2c3c(nc(N)n4nc(-c5ccco5)nc34)nn2C)CC1 [Compound 54, 2-Furan-2-yl-8-methyl-9-(4-methyl-piperazin-1-yl)-8H-pyrazolo[4,3-e][1,2,4]triazolo[1,5-c]pyrimidin-5-ylamine dihydrochloride salt] |  |  |  |  |  |  | Ki ([1]; Table 3: [3H]DPCPX, human A1, CHO cells, dihydrochloride salt): 48 nM; Ki ([2]; Table 3: [3H]SCH58261, human A2A, dihydrochloride salt): 135 nM; Ki ([3]; Table 3: [3H]DPCPX, HEK-293 cells, dihydrochloride salt): 12 nM

The next lines start with results.

affinity for / interaction with A3 adenosine receptor subtype ([4]; in words) | Ki [1, 8] [nM] | affinity for A2A adenosine receptor subtype [2] | Ki [3, 9] [nM] | Ki [4, 10] [nM] | Ki [2, 11] [nM] | SMILES | also measured
 | 260 | useless |  |  |  | COc1ccc(Nc2c3c(nc(N)n4nc(-c5ccco5)nc34)nn2C)cc1 [Compound 39, 2-Furan-2-yl-N9-(4-methoxy-phenyl)-8-methyl-8H-pyrazolo[4,3-e][1,2,4]triazolo[1,5-c]pyrimidine-5,9-diamine] | 
 | 9 | maintains the A2A affinity | 69 | 224 | 2.1 | CCCSc1c2c(nc(N)n3nc(-c4ccco4)nc23)nn1C [Compound 42, 2-Furan-2-yl-8-methyl-9-propylsulfanyl-8H-pyrazolo[4,3-e][1,2,4]triazolo[1,5-c]pyrimidin-5-ylamine] | selectivity for A2A versus the other adenosine receptor subtypes [2]: increases the selectivity
 | 316 |  | 26 |  |  | COc1ccc(NC(=O)Nc2nc3nn(C)c(N4CCN(C)CC4)c3c3nc(-c4ccco4)nn23)cc1 [Compound 45, 1-[2-Furan-2-yl-8-methyl-9-(4-methyl-piperazin-1-yl)-8H-pyrazolo[4,3-e][1,2,4]triazolo[1,5-c]pyrimidin-5-yl]-3-(4-methoxy-phenyl)-urea] | 
decreased | 70 |  | 24 | 212 | 3.1 | COc1ccc(NC(=O)Nc2nc3nn(C)c(SC)c3c3nc(-c4ccco4)nn23)cc1 [Compound 46, 1-(2-Furan-2-yl-8-methyl-9-methylsulfanyl-8H-pyrazolo[4,3-e][1,2,4]triazolo[1,5-c]pyrimidin-5-yl)-3-(4-methoxy-phenyl)-urea] | 
decreased | 70 |  | 30 | 110 | 4.1 | CSc1c2c(nc(NC(=O)Cc3ccc4c(c3)OCO4)n3nc(-c4ccco4)nc23)nn1C [Compound 49, 2-Benzo[1,3]dioxol-5-yl-N-(2-furan-2-yl-8-methyl-9-methylsulfanyl-8H-pyrazolo[4,3-e][1,2,4]triazolo[1,5-c]pyrimidin-5-yl)-acetamide] | 
 | 666 | useless |  | 308 |  | Cn1nc2nc(N)n3nc(-c4ccco4)nc3c2c1Nc1ccc(O)cc1 [Compound 52, 4-(5-Amino-2-furan-2-yl-8-methyl-8H-pyrazolo[4,3-e][1,2,4]triazolo[1,5-c]pyrimidin-9-ylamino)-phenol] | 
